Results from PMC10293653 (International Journal of Biological Macromolecules, 2023).

Columns and labels:
Type in all cases: cell-based
B.1.351 (β-variant) = test: SARS-CoV-2 inhibition assay in Vero E6 cells, B.1.351; conditions: 0.99 μM
[1] = test system: variants of SARS-CoV-2 (B1.1.7, B.1.351, B.1.617.2, and B.1.617.1); conditions: for prevention of infection of all clades: alone at their highest doses; for reduction of SARS-CoV-2 infection in all lineages: alone or in combination, lowest given concentration
B.1.617 (κ-variant) = test: SARS-CoV-2 inhibition assay in Vero E6 cells, B.1.617; conditions: 0.99 μM
B.1.617.2 (δ-variant) = test: SARS-CoV-2 inhibition assay in Vero E6 cells, B.1.617.2; conditions: 0.99 μM
B.1.1.7 (α-variant) = test: SARS-CoV-2 inhibition assay in Vero E6 cells, B.1.1.7; conditions: 0.99 μM

Compound	effect on β-SARS-CoV-2 growth (B.1.351 (β-variant))	inhibition of viral growth among all variants ([1]; 1.98 μM)	prevention of infection of all clades [1]	reduction of SARS-CoV-2 infection in all lineages [1]	effect on κ-SARS-CoV-2 growth (B.1.617 (κ-variant))	effect on δ-SARS-CoV-2 growth (B.1.617.2 (δ-variant))	effect on α-SARS-CoV-2 growth (B.1.1.7 (α-variant))	inhibitory effectiveness against all VOCs [1]
N[C@@H](CC(=O)N1CCn2c(nnc2C(F)(F)F)C1)Cc1cc(F)c(F)cc1F [Sitagliptin, sitagliptin]	partially inhibit	6–7 folds	entirely prevent the infection of all clades	6–10 folds	partially inhibit	unable to prevent even the partial growth	partially inhibit	
CC#CCn1c(N2CCC[C@@H](N)C2)nc2c1c(=O)n(Cc1nc(C)c3ccccc3n1)c(=O)n2C [Linagliptin, linagliptin]			entirely prevent the infection of all clades	6–10 folds				dose-dependent inhibitory effectiveness
